Data as given in the CheMixHub viscosity set.

Assay: xn = mol fraction of the nth substance listed

O=CN1CCOCC1 + Clc1ccccc1
viscosity [mPa·s], 101 kPa
Settings	x1 = 0.1017	x1 = 0.203	x1 = 0.3039	x1 = 0.4045	x1 = 0.5046	x1 = 0.6044	x1 = 0.7039	x1 = 0.8029	x1 = 0.9017
303.15 K	0.844	1.034	1.274	1.58	1.966	2.471	3.125	3.981	5.096
308.15 K	0.801	0.973	1.186	1.455	1.793	2.233	2.8	3.529	4.465
313.15 K	0.753	0.911	1.105	1.351	1.656	2.05	2.56	3.21	4.04

CCOC(=O)CC(C)=O + CCCO
viscosity [mPa·s], 100 kPa
Settings	x1 = 0.0644	x1 = 0.1297	x1 = 0.2035	x1 = 0.2808	x1 = 0.3716	x1 = 0.4706	x1 = 0.5808	x1 = 0.7083	x1 = 0.8379
293.15 K	1.907	1.663	1.448	1.344	1.321	1.346	1.395	1.46	1.563
298.15 K	1.675	1.515	1.404	1.32	1.279	1.281	1.295	1.336	1.413

CCC(=O)c1ccccc1 + CNC(C)=O
308.15 K, 101 kPa
Settings	viscosity [mPa·s]
x1 = 0.06	2.972
x1 = 0.1269	2.778
x1 = 0.1862	2.61
x1 = 0.2778	2.38
x1 = 0.3654	2.19
x1 = 0.4649	2.005
x1 = 0.5709	1.828
x1 = 0.6929	1.648
x1 = 0.8315	1.485

NCc1ccccc1 + CCCCCO
viscosity [mPa·s], 101.33 kPa
Settings	x1 = 0.1	x1 = 0.2004	x1 = 0.2999	x1 = 0.4	x1 = 0.4997	x1 = 0.6	x1 = 0.7003	x1 = 0.8	x1 = 0.8999
298.15 K	3.257	3.009	2.798	2.599	2.419	2.25	2.088	1.943	1.808
303.15 K	2.82	2.607	2.436	2.25	2.124	1.971	1.842	1.72	1.616
308.15 K	2.406	2.283	2.133	1.979	1.841	1.734	1.624	1.526	1.454

O=CN1CCOCC1 + Cc1ccccc1C
viscosity [mPa·s]
Settings	298.15 K	303.15 K	313.15 K	323.15 K
101 kPa, x2 = 0.1	5.936	5.18	4.063	3.294
101 kPa, x2 = 0.2	4.582	4.054	3.243	2.671
101 kPa, x2 = 0.3	3.602	3.231	2.627	2.194
101 kPa, x2 = 0.4	2.87	2.584	2.142	1.8
101 kPa, x2 = 0.5	2.233	2.034	1.71	1.467
101 kPa, x2 = 0.6	1.744	1.583	1.347	1.161
101 kPa, x2 = 0.7	1.385	1.271	1.08	0.9316
101 kPa, x2 = 0.8	1.122	1.034	0.8894	0.7789
101 kPa, x2 = 0.9	0.9104	0.8483	0.7328	0.6556
101.3 kPa, x2 = 0.05737	6.316	–	–	–
101.3 kPa, x2 = 0.1297	4.989	–	–	–
101.3 kPa, x2 = 0.2312	3.617	–	–	–
101.3 kPa, x2 = 0.5161	1.652	–	–	–
101.3 kPa, x2 = 0.5998	1.343	–	–	–
101.3 kPa, x2 = 0.6877	1.088	–	–	–
101.3 kPa, x2 = 0.7767	0.908	–	–	–
101.3 kPa, x2 = 0.9523	0.635	–	–	–

O=C1c2ccccc2C(=O)N1c1ccccc1 + c1ccncc1
Settings	viscosity [mPa·s]
298.15 K, 101 kPa, x1 = 0.0129	0.9606
